Measured values from the supplement of paper PMC11061612.

How the values were obtained:
Assay in all cases: combination Emax (second highest fraction inhibited in the dose matrix, 72 h); higher = more inhibition; extreme values may be limits of the assay
[1] = tested on: A4-Fuk (B-Lymphoblastic Leukemia)
Summary of the method: (§1)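 Bliss excess equals the observed combination effect minus the expected value EA + EB − EA·EB, where EA and EB are the effects of each agent alone. Combination Emax is the second-highest inhibition within the matrix. Inhibition was scaled from CellTiter-Glo 2.0 luminescence, with 0 set by vehicle wells and 1 by blank wells, after 72 hours of two-drug dosing of cells plated in 1536-well plates.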

[2] = tested on: NCI-H1993 (Lung Adenocarcinoma)
Summary of the method: as §1

[3] = tested on: HAL-01 (B-Lymphoblastic Leukemia)
Summary of the method: as §1

[4] = tested on: Hey (Ovarian Carcinoma)
Summary of the method: as §1

Row | SMILES | combination Emax [1] | combination Emax [2] | combination Emax [3] | combination Emax [4]
1 | O=C(c1cc(Cc2n[nH]c(=O)c3ccccc23)ccc1F)N1CCN(C(=O)C2CC2)CC1 [Olaparib] + CC1(C)CCC(CN2CCN(c3ccc(C(=O)NS(=O)(=O)c4ccc(NCC5CCOCC5)c([N+](=O)[O-])c4)c(Oc4cnc5[nH]ccc5c4)c3)CC2)=C(c2ccc(Cl)cc2)C1 [Venetoclax] (first compound max 10 µM, 7x7, partner max 1 µM) | 0.301 | 0.0726 | 0.926 | –
2 | COc1nnc2ccc(N3CCC(c4ccc(OCCN5CCN(C)C(=O)[C@H]5C)cc4)CC3)nn12 [AZD5153] + CC1(C)CCC(CN2CCN(c3ccc(C(=O)NS(=O)(=O)c4ccc(NCC5CCOCC5)c([N+](=O)[O-])c4)c(Oc4cnc5[nH]ccc5c4)c3)CC2)=C(c2ccc(Cl)cc2)C1 [Venetoclax] (first compound max 1 µM, 7x7, partner max 1 µM) | 0.871 | 0.444 | 0.979 | 0.523
3 | CC(=O)c1c(C)c2cnc(Nc3ccc(N4CCNCC4)cn3)nc2n(C2CCCC2)c1=O [Palbociclib] + CC1(C)CCC(CN2CCN(c3ccc(C(=O)NS(=O)(=O)c4ccc(NCC5CCOCC5)c([N+](=O)[O-])c4)c(Oc4cnc5[nH]ccc5c4)c3)CC2)=C(c2ccc(Cl)cc2)C1 [Venetoclax] (first compound max 10 µM, 7x7, partner max 1 µM) | 0.552 | 0.403 | 0.99 | 0.355
4 | Cc1c2c(nn1C)CSCc1cc(n(C)n1)CSc1cc(c3ccccc3c1)OCCCc1c(C(=O)O)n(C)c3c-2c(Cl)ccc13 [AZD5991] + CC(=O)O[C@H]1C(=O)[C@@]2(C)[C@H]([C@H](OC(=O)c3ccccc3)[C@]3(O)C[C@H](OC(=O)[C@H](O)[C@@H](NC(=O)c4ccccc4)c4ccccc4)C(C)=C1C3(C)C)[C@]1(OC(C)=O)CO[C@@H]1C[C@@H]2O [Paclitaxel] (first compound max 1 µM, 7x7, partner max 3 µM) | 1 | 0.863 | 0.99 | –
5 | CC1(C)CCC(CN2CCN(c3ccc(C(=O)NS(=O)(=O)c4ccc(NCC5CCOCC5)c([N+](=O)[O-])c4)c(Oc4cnc5[nH]ccc5c4)c3)CC2)=C(c2ccc(Cl)cc2)C1 [Venetoclax] + C1CN(CCC1(C(=O)N[C@@H](CCO)C2=CC=C(C=C2)Cl)N)C3=NC=NC4=C3C=CN4 [Capivasertib] (first compound max 1 µM, 7x7, partner max 3 µM) | 0.724 | 0.5 | 0.916 | 0.24
6 | NC1(C(=O)N[C@@H](CCO)c2ccc(Cl)cc2)CCN(c2ncnc3[nH]ccc23)CC1 [Capivasertib] + COc1nnc2ccc(N3CCC(c4ccc(OCCN5CCN(C)C(=O)[C@H]5C)cc4)CC3)nn12 [AZD5153] (first compound max 10 µM, 7x7, partner max 1 µM) | 0.95 | 0.676 | 0.719 | 0.556
7 | O=C(c1cc(Cc2n[nH]c(=O)c3ccccc23)ccc1F)N1CCN(C(=O)C2CC2)CC1 [Olaparib] + COc1nnc2ccc(N3CCC(c4ccc(OCCN5CCN(C)C(=O)[C@H]5C)cc4)CC3)nn12 [AZD5153] (first compound max 10 µM, 7x7, partner max 1 µM) | 0.876 | 0.459 | 0.801 | –
8 | C[C@@H](Oc1cc(-c2cnn(C3CCNCC3)c2)cnc1N)c1c(Cl)ccc(F)c1Cl [Crizotinib] + CC1=C(C(=CC=C1)Cl)NC(=O)C2=CN=C(S2)NC3=CC(=NC(=N3)C)N4CCN(CC4)CCO [Dasatinib] (first compound max 10 µM, 7x7, partner max 2 µM) | 0.922 | 0.811 | 0.961 | –
9 | CS(=O)(=O)CCNCc1ccc(-c2ccc3ncnc(Nc4ccc(OCc5cccc(F)c5)c(Cl)c4)c3c2)o1 [Lapatinib] + NC1(c2ccc(-c3nc4ccn5c(=O)[nH]nc5c4cc3-c3ccccc3)cc2)CCC1 [MK-2206] (first compound max 10 µM, 7x7, partner max 10 µM) | 0.971 | 0.68 | 0.951 | –
10 | C=CCn1c(=O)c2cnc(Nc3ccc(N4CCN(C)CC4)cc3)nc2n1-c1cccc(C(C)(C)O)n1 [AZD1775] + CCc1c2c(nc3ccc(O)cc13)-c1cc3c(c(=O)n1C2)COC(=O)[C@]3(O)CC [SN-38] (first compound max 1 µM, partner max 0.3 µM) | 1 | 0.739 | 1 | –
11 | C[C@@H](Oc1cc(-c2cnn(C3CCNCC3)c2)cnc1N)c1c(Cl)ccc(F)c1Cl [Crizotinib] + Cn1cnc2c(F)c(Nc3ccc(Br)cc3Cl)c(C(=O)NOCCO)cc21 [Selumetinib] (first compound max 10 µM, 7x7, partner max 10 µM) | 0.942 | 0.871 | 0.991 | –
12 | Cc1c2c(nn1C)CSCc1cc(n(C)n1)CSc1cc(c3ccccc3c1)OCCCc1c(C(=O)O)n(C)c3c-2c(Cl)ccc13 [AZD5991] + CS(=O)(=O)CCNCc1ccc(-c2ccc3ncnc(Nc4ccc(OCc5cccc(F)c5)c(Cl)c4)c3c2)o1 [Lapatinib] (first compound max 1 µM, 7x7, partner max 10 µM) | 1 | 0.433 | 0.965 | –
13 | C[C@@H](Nc1cc(F)cc(F)c1)c1cc(C(=O)N(C)C)cc2c(=O)cc(N3CCOCC3)oc12 [AZD8186] + CC(=O)c1c(C)c2cnc(Nc3ccc(N4CCNCC4)cn3)nc2n(C2CCCC2)c1=O [Palbociclib] (first compound max 10 µM, 7x7, partner max 10 µM) | 0.706 | 0.578 | 0.793 | –
14 | Cc1nc(-c2cn3c(n2)-c2ccc(-c4cnn(C(C)(C)C(N)=O)c4)cc2OCC3)n(C(C)C)n1 [Taselisib] + O=C(Nc1ccc2[nH]nc(-c3ccncc3)c2c1)[C@@H]1CCN(CC(=O)N2CCN(c3ccc(-c4ncccn4)cc3)CC2)C1 [SCH772984] (first compound max 10 µM, 7x7, partner max 5 µM) | 1 | 0.886 | 0.78 | –
15 | C=CCn1c(=O)c2cnc(Nc3ccc(N4CCN(C)CC4)cc3)nc2n1-c1cccc(C(C)(C)O)n1 [AZD1775] + Nc1ccn([C@@H]2O[C@H](CO)[C@@H](O)C2(F)F)c(=O)n1 [Gemcitabine] (first compound max 1 µM, partner max 0.3 µM) | 0.965 | 0.905 | 1 | –
16 | C[C@@H](Nc1cc(F)cc(F)c1)c1cc(C(=O)N(C)C)cc2c(=O)cc(N3CCOCC3)oc12 [AZD8186] + C1CN(CCC1(C(=O)N[C@@H](CCO)C2=CC=C(C=C2)Cl)N)C3=NC=NC4=C3C=CN4 [AZD5363] (first compound max 10 µM, 7x7, partner max 10 µM) | 0.76 | 0.636 | 0.623 | –
17 | CC1(C)CCC(CN2CCN(c3ccc(C(=O)NS(=O)(=O)c4ccc(NCC5CCOCC5)c([N+](=O)[O-])c4)c(Oc4cnc5[nH]ccc5c4)c3)CC2)=C(c2ccc(Cl)cc2)C1 [Venetoclax] + CS(=O)(=O)CCNCc1ccc(-c2ccc3ncnc(Nc4ccc(OCc5cccc(F)c5)c(Cl)c4)c3c2)o1 [Lapatinib] (first compound max 1 µM, 7x7, partner max 10 µM) | 0.832 | 0.262 | 0.968 | –
18 | CN(CCO)CC[C@H](CSc1ccccc1)Nc1ccc(S(=O)(=O)NC(=O)c2ccc(N3CCC([C@@H](O)c4ccccc4-c4ccc(Cl)cc4)CC3)cc2)cc1S(=O)(=O)C(F)(F)F [AZD4320] + CS(=O)(=O)CCNCc1ccc(-c2ccc3ncnc(Nc4ccc(OCc5cccc(F)c5)c(Cl)c4)c3c2)o1 [Lapatinib] (first compound max 1 µM, 7x7, partner max 10 µM) | 0.931 | 0.943 | 1 | –
19 | C[C@@H]1COCCN1c1cc(C2([S@](C)(=N)=O)CC2)nc(-c2ccnc3[nH]ccc23)n1 [AZD6738] + Nc1ccn([C@@H]2O[C@H](CO)[C@@H](O)C2(F)F)c(=O)n1 [Gemcitabine] (first compound max 10 µM, 7x7, partner max 0.3 µM) | 0.962 | 0.939 | 1 | –
20 | CS(=O)(=O)CCNCc1ccc(-c2ccc3ncnc(Nc4ccc(OCc5cccc(F)c5)c(Cl)c4)c3c2)o1 [Lapatinib] + Cn1cnc2c(F)c(Nc3ccc(Br)cc3Cl)c(C(=O)NOCCO)cc21 [Selumetinib] (first compound max 10 µM, 7x7, partner max 10 µM) | 0.979 | 0.73 | 0.516 | –
21 | O=C(c1cc(Cc2n[nH]c(=O)c3ccccc23)ccc1F)N1CCN(C(=O)C2CC2)CC1 [Olaparib] + CN(CC[C@H](CSC1=CC=CC=C1)NC2=C(C=C(C=C2)S(=O)(=O)NC(=O)C3=CC=C(C=C3)N4CCC(CC4)[C@H](C5=CC=CC=C5C6=CC=C(C=C6)Cl)O)S(=O)(=O)C(F)(F)F)CCO [AZD4320] (first compound max 10 µM, 7x7, partner max 1 µM) | 0.0633 | 0.595 | 0.65 | –
22 | C[C@@H]1COCCN1c1cc(C2([S@](C)(=N)=O)CC2)nc(-c2ccnc3[nH]ccc23)n1 [AZD6738] + C1CC(C1)(C(=O)[O-])C(=O)[O-].N.N.[Pt+2] [Carboplatin] (first compound max 10 µM, 7x7, partner max 10 µM) | 0.823 | 0.547 | 0.963 | –
23 | Cc1c2c(nn1C)CSCc1cc(n(C)n1)CSc1cc(c3ccccc3c1)OCCCc1c(C(=O)O)n(C)c3c-2c(Cl)ccc13 [AZD5991] + Nc1ccn([C@@H]2O[C@H](CO)[C@@H](O)C2(F)F)c(=O)n1 [Gemcitabine] (first compound max 1 µM, 7x7, partner max 0.3 µM) | 1 | 0.902 | 1 | –
24 | O=C(c1cc(Cc2n[nH]c(=O)c3ccccc23)ccc1F)N1CCN(C(=O)C2CC2)CC1 [Olaparib] + Cc1c2c(nn1C)CSCc1cc(n(C)n1)CSc1cc(c3ccccc3c1)OCCCc1c(C(=O)O)n(C)c3c-2c(Cl)ccc13 [AZD5991] (first compound max 10 µM, 7x7, partner max 1 µM) | 1 | 0.124 | 0.269 | –
